The source of these data is paper PMC11623267, “Inhibitors of malaria parasite cyclic nucleotide phosphodiesterases block asexual blood-stage development and mosquito transmission” (Science Advances, 2024).

What all share (type): cell-based, Plasmodium falciparum
Test [1] deals with P. falciparum stage V gametocytes (female gamete formation). Description: Female gamete formation inhibition assay. The settings on record: 2 μM, 48 hours. Here is the method: Mature gametocytes (>95% stage V) were treated with compounds (2 μM) for 48 hours before stimulating female gamete formation. To evaluate compound dose response, gametocytes were treated similarly at set concentrations representing a fourfold serial dilution. Female gamete activation was induced by both a temperature drop and the addition of 100 μM XA. Monoclonal anti-Pfs25 antibody (BEI Resources, catalog number MRA-28; 1:1000 dilution) conjugated to fluorescein isothiocyanate was used to detect female gametes. Image acquisition was performed using a Zeiss Axio Lab.A1 epifluorescence microscope with a 100/1.4 numerical aperture oil immersion objective and a Zeiss Axiocam 202 mono digital camera. Using a 100× objective, 30 images were taken per sample and analyzed manually. The number, size, roundness, and intensity of fluorescence of activated female gametocytes were evaluated. Compound IC50 values were determined with nonlinear curve fitting (GraphPad Prism 6), normalized to maximum and minimum inhibition.

The test system of test [2] is P. falciparum clinical isolates from Porto Velho, Brazil. The experiment in a line: Ex vivo schizont maturation assay, Brazilian clinical isolates. The settings on record: eight Brazilian isolates; read-out: Median EC50, clinical isolates. The method, then: (§1) Only monoinfected patients with P. falciparum with parasitemia between 2000 and 80,000 parasites/μl and with at least 70% of ring-stage parasites were recruited. Patients who had used an antimalarial in the previous month and/or presented with symptoms of severe malaria were excluded from the study. The study cohort comprised 24 patients living in this highly endemic area. A peripheral venous blood sample (5 ml) was collected from each individual by venipuncture in heparin-containing tubes and immediately used in the ex vivo drug susceptibility assay using preprepared plates containing diluted antimalarial compounds. […] Last, 20 μl of each dilution was transferred into the ex vivo assay plate and diluted 10-fold into the final assay medium containing parasites. For the infected blood preparation, 5 ml of whole blood was centrifuged at 800g for 10 min, and the plasma and buffy coat were removed. […] Control assays on a 3D7 laboratory isolate were performed with medium supplemented with human serum (20%). The iRBC (180 μl per well) were distributed in the predosed drug plate. […] Control wells containing drug-free iRBCs were cultured with complete medium. The parasite-drug incubation was terminated when 40% of the ring stages reached the schizont stage (at least three distinct nuclei per parasite) in the drug-free control wells. Thick blood films were then made from each well, dried, stained with 5% Giemsa solution for 30 min, and examined microscopically. The number of schizonts per 200 asexual-stage parasites was determined for each drug concentration and then normalized by comparing with the schizont number in the drug-free control wells [considered as 100% ([64])]. The half-maximal drug inhibitory response (EC50) was estimated by curve fitting using software from the OriginLab Corporation, Northampton, MA, USA and comparing with parasite growth in the drug-free controls.

The test system of test [3] is P. falciparum 3D7. The experiment in a line: Ex vivo schizont maturation assay, 3D7 control (Brazil). The settings on record: tested in parallel with Brazilian isolates, 20% human serum. The method, then: as §1, with “The parasite-drug incubation was terminated when 40% of the ring stages reached the schizont stage (at least three distinct nuclei per parasite) in the drug-free control wells. Thick blood films were then made from each well, dried, stained with 5% Giemsa solution for 30 min, and examined microscopically.” left out, “The half-maximal drug inhibitory response (EC50) was estimated by curve fitting using software from the OriginLab Corporation, Northampton, MA, USA and comparing with parasite growth in the drug-free controls.” left out

Test [4] concerns P. falciparum stage V gametocytes (male gamete formation). The experiment in a line: Exflagellation (male gamete formation) inhibition assay. The settings on record: 2 μM, 48 hours. The method, then: The exflagellation inhibition assay was performed by capturing movement of exflagellation centers over time by video microscopy [adapted from a reported protocol ([52])]. For this carry-over format, mature stage V gametocytes were treated with 2 μM of each compound for 48 hours before induction of exflagellation in the presence of compound. To evaluate compound dose response, gametocytes were treated similarly at a set of concentrations representing a fourfold serial dilution. Mature gametocyte cultures (>95% stage V; 500 μl) were centrifuged at 3500 rpm for 30 s, and the pellet was resuspended in 30 μl of ookinete medium [RPMI 1640 medium containing L-glutamine (Sigma-Aldrich, R6504), gentamycin (0.024 mg/ml; HyClone, SV30080.01), 202 μM hypoxanthine (Sigma-Aldrich, H9636), 25 mM Hepes (Sigma-Aldrich, H4034), 0.2% glucose (Sigma-Aldrich, G6152), and 0.5% (w/v) AlbuMAX II (Invitrogen, Paisley, UK), supplemented with 100 μM XA and 20% human serum]. The activated culture (10 μl) was introduced into a Neubauer chamber and placed on the microscope platform to settle homogenously. Time was noted as time zero (T0), and the chamber was incubated at room temperature. Movement was recorded by video microscopy using a Carl Zeiss NT 6V/10W Stab microscope, fitted with a MicroCapture camera at 10× magnification, and then quantified by a semiautomated method, a modification of the method described previously ([53]). A series of 15 videos of 8 to 10 s each were captured at random locations between 15 and 22.5 min after incubation. Each video was analyzed using Icy bioimage analysis software to quantify the number of exflagellating centers. Compound IC50 values were determined with nonlinear curve fitting (GraphPad Prism 6), normalized to maximum and minimum inhibition.

The subject of test [5] is P. falciparum Dd2. The experiment in a line: P. falciparum Dd2 LDH growth inhibition assay (asexual blood stage). The settings on record: multidrug-resistant Dd2; geometric mean ×/÷ geometric SD. The method, then: P. falciparum isolates (3D7/Dd2) were obtained from BEI Resources and were cultured using standard procedures as described elsewhere ([47]). Briefly, P. falciparum was grown in RPMI 1640 medium (10.3 g/liter) supplemented with L-glutamine (2 mM), hypoxanthine (150 μM), Hepes (25 mM), D-glucose (12 mM), sodium bicarbonate (25.7 mM), AlbuMAX II (0.5% or 5 g/liter) (pH 7.4), and 2% RBC (type O+, freshly prepared). Cultures were replenished with fresh medium and RBCs every other day. For RBC preparation, whole blood was centrifuged at 415g at room temperature for 12 min. After that, the plasma and buffy coat were removed, and packed RBCs were washed three times with 3 vol of RPMI 1640. Last, RBCs were resuspended in 1:1 vol of complete RPMI 1640 medium (containing 0.5% AlbuMAX II).
The P. falciparum 3D7 and Dd2 LDH growth inhibition assay was carried out as described elsewhere ([48]) with minor modification of the parasitological conditions (10 to 15% parasitemia with ≥80% rings). Data were normalized to percent growth inhibition with respect to […] (for 3D7, a mixture of 100 nM chloroquine and 100 nM atovaquone as 100% inhibition; for Dd2, a mixture of 200 nM DHA and 200 nM atovaquone as 100% inhibition) controls.

For test [6], the system named is P. falciparum stage IV/V gametocytes. The experiment in a line: LDH-based gametocyte viability assay. The settings on record: stage IV to V gametocytes. The method, then:
The pLDH assay was performed on late (>95% stage IV/V) gametocytes. Compound dilutions were placed in triplicate in 96-well plates in a final volume of 100 μl per well. DHA and MMV048 were used as positive drug controls. The gametocyte cultures (100 μl per well) were added to the 96-well plates to achieve a final gametocytemia and hematocrit of 2 and 1%, respectively, in a total incubation volume of 200 μl. Plates were incubated at 37°C for 72 hours, followed by the replacement of spent medium with drug-free culture medium (75% medium change) ([54], [55]). Plates were then incubated for a further 72 hours before assessing viability by measuring pLDH activity. Gametocyte viability was determined spectrophotometrically by measuring the activity of pLDH, according to a modified version of a published protocol ([56]). Briefly, 100 μl of Malstat reagent [0.21% (v/v) Triton X-100, 222 mM L-(+)-lactic acid, 54.5 mM tris, 0.166 mM APAD (Sigma-Aldrich, A5251), adjusted to pH 9 with 1 M NaOH] was transferred into a clean 96-well plate. A fixed volume of 20 μl of parasite suspension per well was added to the Malstat plate, followed by the addition of 25 μl of PES/NBT (0.239 mM phenazine ethosulfate and 1.96 mM nitro blue tetrazolium chloride). Absorbance was measured with a Multiskan Ascent 354 multiplate scanner (Thermo LabSystems, Finland) at 620 nm.

Broadly, the EC50 is the concentration that produces a half-maximal response. For the molecule `CCc1c2nc(-c3cc(C(=O)NC(C)C)cnc3OCC(C)C)[nH]c(=O)c2nn1CCOC` [SAL-0010255], in test [1], the “% inhibition of female gamete formation at 2 μM” value was found to be 66.7 ± 1.8%. The EC50 in test [2] was determined as 0.157 µM; in test [3], 0.089 µM; in test [5], 0.126 µM. Also, in test [4], the “% inhibition of exflagellation at 2 μM” value is given as 48.8 ± 25.3%. Further, in test [6], the “% inhibition gametocyte viability at 15 μM” value is reported as 40.4 ± 3.1%.
